From PMC4844572 (SpringerPlus, 2016)

System: EstSTR1
Assay type: biochemical, uncultured bacterium
Settings: competitive against 100 μM cephalothin; 10 mM MES pH 6.8, bovine serum albumin 20 μg/ml, enzyme 396 μM as printed; stands in Km column, footnote gives Ki

## CO/N=C(\C(=O)N[C@@H]1C(=O)N2C(C(=O)O)=C(COC(C)=O)CS[C@H]12)c1csc(N)n1 [TAX, cefotaxime]
  Km (μM) / Wild: 0.90 ± 0.004 µM
